Values of other authors in patent US20240108579A1, “UTIDELONE LIPOSOME COMPOSITION, AND PREPARATION METHOD THEREFOR AND USE THEREOF” (Chengdu Biostar Pharmaceuticals, LTD., priority 2021, published 2024).
Where two headings read alike, the source gives them in different places.

In the case of `CC1=CCC(C(C)=Cc2csc(C)n2)OC(=O)CC(O)C(C)(C)C(=O)C(C)C(O)C(C)CCC1` (stereo not drawn) [Utidelone, 4,8-dihydroxy-5,5,7,9,13-pentamethyl-16-[1-methyl-2-(2-methyl-thiazole-4-yl)-vinyl]-hexadecoxetane-13-en-2,6-one lactone], the “solubility (in words)” value (ethanol, methanol, ethyl acetate, and chloroform) is given as “easily soluble”, the “saturated solubility in water” value (water) is given as “less than 1 μg/ml” and the “solubility (in words)” value (water) is given as “insoluble”.
